Measured values as given in ChEMBL document CHEMBL1136856, “Synthesis of 5-isoxazol-5-yl-2'-deoxyuridines exhibiting antiviral activity against HSV and several RNA viruses” (Bioorg Med Chem Lett, 2009).
In brackets after ≈: the same amount, converted by molar mass. Activity calls are given as the source filed them. The rule behind the calls is not given here.

Assays:
Format in all cases: functional, organism-based
Human alphaherpesvirus 1 = assay: Antiviral activity against HSV1 assessed as inhibition of virus-induced cytopathicity
Human alphaherpesvirus 2 = assay: Antiviral activity against HSV2 assessed as inhibition of virus-induced cytopathicity
[1] = test system: Encephalomyocarditis virus; assay: Antiviral activity against EMCV assessed as inhibition of virus-induced cytopathicity; conditions: Cardiovirus A
Coxsackievirus B3 = assay: Antiviral activity against Coxsackievirus B3 assessed as inhibition of virus-induced cytopathicity; conditions: Enterovirus B
[2] = test system: Vesicular stomatitis virus; assay: Antiviral activity against VSV assessed as inhibition of virus-induced cytopathicity
[3] = test system: Human immunodeficiency virus; assay: Antiviral activity against HIV assessed as inhibition of virus-induced cytopathicity
Influenza A virus [4] = assay: Antiviral activity against influenza A virus Taiwan assessed as inhibition of virus-induced cytopathicity
Coronaviridae = assay: Antiviral activity against Coronavirus assessed as inhibition of virus-induced cytopathicity
Influenza A virus [5] = assay: Antiviral activity against influenza A virus Seoul assessed as inhibition of virus-induced cytopathicity
Influenza A virus [6] = assay: Antiviral activity against influenza A virus Panama assessed as inhibition of virus-induced cytopathicity

Nc1ccn([C@@H]2O[C@H](CO)[C@@H](O)[C@@H]2O)c(=O)n1 [CYTARABINE]
EC50 (Human alphaherpesvirus 1): 0.2 µg/mL (≈ 0.822 µM) | EC50 (Human alphaherpesvirus 2): 0.52 µg/mL (≈ 2.14 µM)

CC(=O)OC[C@H]1O[C@@H](n2cc(-c3cc(-c4ccc(C(C)(C)C)cc4)no3)c(=O)[nH]c2=O)C[C@@H]1OC(C)=O
EC50 (Human alphaherpesvirus 1): > 0.06 µg/mL | EC50 (Human alphaherpesvirus 2): 0.03 µg/mL (≈ 0.0586 µM) | EC50 [1]: 0.01 µg/mL (≈ 0.0195 µM) | EC50 (Coxsackievirus B3): 0.01 µg/mL (≈ 0.0195 µM) | EC50 [2]: 0.03 µg/mL (≈ 0.0586 µM) | Activity [3]: inactive | Activity (Influenza A virus [4]): inactive | Activity (Coronaviridae): inactive | Activity (Influenza A virus [5]): inactive | Activity (Influenza A virus [6]): inactive

NC(=O)c1ncn([C@@H]2O[C@H](CO)[C@@H](O)[C@H]2O)n1 [RIBAVIRIN]
EC50 [1]: 0.02 µg/mL (≈ 0.0819 µM)

Nc1nc2c(ncn2COCCO)c(=O)[nH]1 [ACYCLOVIR]
EC50 (Human alphaherpesvirus 1): 0.18 µg/mL (≈ 0.799 µM) | EC50 (Human alphaherpesvirus 2): 0.36 µg/mL (≈ 1.6 µM)

CC(=O)OC[C@H]1O[C@@H](n2cc(-c3cc(-c4ccc(C(C)C)cc4)no3)c(=O)[nH]c2=O)C[C@@H]1OC(C)=O
EC50 (Human alphaherpesvirus 1): 0.08 µg/mL (≈ 0.161 µM) | EC50 (Human alphaherpesvirus 2): 0.07 µg/mL (≈ 0.141 µM) | EC50 [1]: 0.01 µg/mL (≈ 0.0201 µM) | EC50 (Coxsackievirus B3): 0.01 µg/mL (≈ 0.0201 µM) | EC50 [2]: 0.03 µg/mL (≈ 0.0603 µM) | Activity [3]: inactive | Activity (Influenza A virus [4]): inactive | Activity (Coronaviridae): inactive | Activity (Influenza A virus [5]): inactive | Activity (Influenza A virus [6]): inactive

CC(C)c1ccc(-c2cc(-c3cn([C@H]4C[C@H](O)[C@@H](CO)O4)c(=O)[nH]c3=O)on2)cc1
EC50 (Human alphaherpesvirus 1): 0.09 µg/mL (≈ 0.218 µM) | EC50 (Human alphaherpesvirus 2): 0.09 µg/mL (≈ 0.218 µM) | EC50 [1]: 0.02 µg/mL (≈ 0.0484 µM) | EC50 (Coxsackievirus B3): 0.03 µg/mL (≈ 0.0726 µM) | EC50 [2]: > 0.07 µg/mL | Activity [3]: inactive | Activity (Influenza A virus [4]): inactive | Activity (Coronaviridae): inactive | Activity (Influenza A virus [5]): inactive | Activity (Influenza A virus [6]): inactive
